Laboratory results reported in patent US20040034036A1, “N-(3,5-dichloro-2-methoxyphenyl)-4-methoxy-3-piperazin-1-yl-benzenesulfonamide” (priority 2000, published 2004).

Experiments:
[1] = MEST (Maximal electroshock seizure threshold) test; assay type: in vivo; conditions: procedures described by Upton et al.
[2] = CNS penetration; assay type: in vivo; conditions: relative to N-(2,3,5-Trichlorophenyl)-4methoxy-3-piperazin-1-ylbenzenesulfonamide (Example 136 of WO 99/02502)
[3] = oral bioavailability; conditions: in vivo

COc1ccc(S(=O)(=O)Nc2cc(Br)cc(F)c2Br)cc1N1CCNCC1 [Example 140 of WO 99/02502, N-(2,5-Dibromo-3-fluorophenyl)-4-methoxy-3-piperazin-1-ylbenzenesulfonamide, reference compound]
effect in MEST test [1]: pro-convulsant effect

COc1ccc(S(=O)(=O)Nc2cc(Cl)cc(Cl)c2OC)cc1N1CCNCC1 [compound of formula (I), N-(3,5-Dichloro-2-methoxy-phenyl)-4-methoxy-3-piperazin-1-yl-benzenesulfonamide]
effect in MEST test [1]: strongly anti-convulsant effect
CNS penetration [2]: enhanced
oral bioavailability [3]: high
